{
  "source": "patent US11564907B2",
  "about": "“Methods and compositions for the treatment of retinopathy and other ocular diseases” (Lankenau Institute for Medical Research, priority 2014, dated 2023)",
  "origin": "cited, not measured here",
  "tested_on": "allogeneic mouse concepti",
  "conditions": "pregnant mice; Munn et al. (1998), Mellor et al. (2001)",
  "data": [
    {"compound": "Cn1cc(C[C@H](N)C(=O)O)c2ccccc21", "note": "[1-methyl-tryptophan]", "values": [
      {"measurement": "rejection of allogeneic mouse concepti", "result": "could elicit T cell-dependent rejection of allogeneic mouse concepti"}
    ]}
  ]
}
